The subject of assay [1] is wild-type A375 human malignant melanoma cells. The experiment in a line: Cell experiment: anti-proliferative activity, CellTiter-Glo, A375. The format is cell-based. As to conditions: 5 days culture. As for the experimental part:
(§1) This experiment is intended to verify that the compounds of the present invention have an inhibitory effect on the proliferation of NCI-H358 human non-small cell lung cancer cells with KRAS G12C mutation, MIA PaCa2 human pancreatic cancer cells with KRAS G12C mutation and wild-type A375 human malignant melanoma cells.
(§2) 40 μl of phosphate buffer was added to the peripheral wells of three 384-well microplates respectively, and 40 μl of cell suspension to be tested was added to the other wells of each plate respectively (plate 1: NCI-H358 cell suspension containing 500 NCI-H358 cells; plate 2: MIAPaCa2 cell suspension containing 300 MIAPaCa2 cells; plate 3: A375 cell suspension containing 300 A375 cells). The three cell plates were then placed in a carbon dioxide incubator and incubated overnight. Echo was used to perform a 3-fold gradient dilution of the compounds to be tested, and each compound was diluted with 10 concentration gradients (diluted from 50 μM to 0.003 μM), 100 nl of which was respectively added to the corresponding wells of the cell plates; after dosing, 40 μL of phosphate buffer was added to each well of rows A and P and columns 1 and 24, and then the cell plates were put back to the carbon dioxide incubator for culturing for 5 days. 20 μl of Promega CellTiter-Glo reagent per well was added to the cell plates, which was shaken at room temperature for 10 minutes in the dark to stabilize the luminescence signal. A PerkinElmer Envision multi-label analyzer was used for reading.
(§3) Data analysis: IC50 results were analyzed by GraphPad Prism 5.0 software […].
(In ATP-based viability assays light output follows the ATP content of the culture.)

Assay [2] relates to NCI-H358 human non-small cell lung cancer cells with KRAS G12C mutation. The experiment in a line: Cell experiment: anti-proliferative activity, CellTiter-Glo, NCI-H358. As to conditions: 5 days culture. The assay is classed as cell-based. As to the method:
as §1, §2, §3

The subject of assay [3] is MIA PaCa2 human pancreatic cancer cells with KRAS G12C mutation. Kind of assay: Cell experiment: anti-proliferative activity, CellTiter-Glo, MIA PaCa2. The format is cell-based. As to conditions: 5 days culture. As for the experimental part:
as §1, §2, §3

Assay [4] deals with human non-small cell lung cancer NCI-H358. Kind of assay: In vivo drug efficacy test (2): subcutaneous xenograft tumor model. The following applies: 100 mg/kg (0-6 days) + 50 mg/kg (7-20 days). The arrangement: species or system BALB/c nude mice. As for the experimental part:
To evaluate the in vivo efficacy of the test compounds in a subcutaneous xenograft tumor model of human non-small cell lung cancer NCI-H358.
BALB/c nude mice, female, 6-8 weeks old, weighing 18-21 grams. A total of 100 were required. They were provided by Shanghai Lingchang Experimental Animal Co., Ltd ( ? ? ). NCI-H358 tumor cells were resuspended in PBS to prepare 0.1 mL (5×10^6) of cell suspension, which was inoculated subcutaneously on the right back of each mouse (5×10^6/mouse) to wait for tumor growth. When the average tumor volume reached about 150-200 mm^3, randomized grouping and administration were performed, and the administration dose was shown in Table 6. The diameter of the tumor was measured with vernier calipers twice a week. The formula for calculating the tumor volume is: V=0.5a×b^2, wherein a and b represent the long and short diameters of the tumor, respectively. The tumor suppressive effect of the compounds was evaluated by TGI (%). TGI (%) reflects the tumor growth inhibition rate. Calculation of TGI (%): TGI (%)=[(1−(average tumor volume at the end of administration in a treatment group−average tumor volume at the beginning of administration in the treatment group))/(average tumor volume at the end of treatment in the solvent control group−average tumor volume at the beginning of treatment in the solvent control group)]×100%.

Where [5] appears, read: Homo sapiens, MIA PaCa-2, 120 h.

We go through 29 compounds from US11453667B2, “Pyridone-pyrimidine derivative acting as KRASG12C mutein inhibitor” (MEDSHINE DISCOVERY INC., priority 2018, dated 2022).

A word on the IC50: it is the concentration that gives 50% inhibition. On to `C=CC(=O)N1CCN(c2ncnc3c(=O)n(-c4c(N)c(Cl)cc(Cl)c4F)c(C(F)(F)F)cc23)[C@@H](C)C1` [Example 54], for which the IC50 is 6.66 µM in assay [1] and 0.29 µM in assay [2].
As to `C=CC(=O)N1CCN(c2nc(N3CC(N(CC)CC)C3)nc3c(=O)n(-c4c(N)c(Cl)cc(Cl)c4F)c(C(F)(F)F)cc23)CC1` (atropisomer, axis not shown) [Example 44], the IC50 turned out to be 9.02 µM in assay [1] (Homo sapiens, A-375, 120 h); 2.97 µM in assay [3]; 3.67 µM in assay [2].
For the compound `C=CC(=O)N1CCN(c2ncnc3c(=O)n(-c4c(N)c(Cl)cc(Cl)c4F)c(C(F)(F)F)cc23)[C@H](C)C1` [Example 52], the 50% inhibitory concentration (IC50) in assay [1] was 7.39 µM; in assay [2] it was 0.06 µM.
For the compound `C=CC(=O)N1CCN(c2ncnc3c(=O)n(-c4c(C)cccc4O)c(C(F)(F)F)cc23)CC1` [Example 25], it took 15.3 µM to reach half-maximal inhibition in assay [3] (setting [5]) (IC50).
Consider `C=CC(=O)N1CCN(c2nc(N3CC(N(CC)CC)C3)nc3c(=O)n(-c4c(C)ccc5[nH]ncc45)c(C(F)(F)F)cc23)CC1` [Example 37], for which the IC50 was 19.7 µM in assay [1] (Homo sapiens, A-375, 120 h); 1.44 µM in assay [3] (setting [5]); 1.05 µM in assay [2] (Homo sapiens, NCI-H358, 120 h).
The matching figures for `C=CC(=O)N1CCN(c2ncnc3c(=O)n(-c4c(F)ccc(Cl)c4N)c(C(F)(F)F)cc23)CC1` [Example 47]: 27.9 µM, 0.82 µM and 1 µM.
Take `C=CC(=O)N1CCN(c2ncnc3c(=O)n(-c4c(F)cccc4OC)c(C(F)(F)F)cc23)CC1` [Example 1]: the IC50 was 17.8 µM in assay [1] (Homo sapiens, A-375, 120 h) and 5.3 µM in assay [2] (Homo sapiens, NCI-H358, 120 h).
`C=CC(=O)N1CCN(c2nc(N3CCOCC3)nc3c(=O)n(-c4c(O)cccc4F)c(C(F)(F)F)cc23)CC1` [Example 6]: the IC50 turned out to be 39.9 µM in assay [1] (Homo sapiens, A-375, 120 h); 12.7 µM in assay [3] (setting [5]); 14.6 µM in assay [2] (Homo sapiens, NCI-H358, 120 h).
Turning to `C=CC(=O)N1CCN(c2nc(Oc3cnn(C)c3)nc3c(=O)n(-c4c(O)cccc4F)c(C(F)(F)F)cc23)CC1` [Example 15], the IC50 in assay [1] (Homo sapiens, A-375, 120 h) was over 50 µM; in assay [2] (Homo sapiens, NCI-H358, 120 h), 13.9 µM.
For `C=CC(=O)N1CCN(c2ncnc3c(=O)n(-c4c(O)c(Cl)cc(Cl)c4F)c(C(F)(F)F)cc23)CC1` [Example 50], the IC50 in assay [1] (Homo sapiens, A-375, 120 h) was over 50 µM; in assay [3] (setting [5]), 3.9 µM; in assay [2] (Homo sapiens, NCI-H358, 120 h) it was 5.49 µM.
In the case of `C=CC(=O)N1CCN(c2nc(N3CC(N(CC)CC)C3)nc3c(=O)n(-c4c(N)c(Cl)cc(Cl)c4F)c(C(F)(F)F)cc23)CC1` (atropisomer, axis not shown) [Example 45], the values for the IC50 in assay [1], in assay [3] and in assay [2] were 6.24 µM, 0.01 µM and 0.01 µM, respectively.
As for `C=CC(=O)N1CCN(c2nc(N3CC(N(CC)CC)C3)nc3c(=O)n(-c4c(O)cccc4F)c(C(F)(F)F)cc23)CC1` [Formate of example 8], the IC50 was 39.1 µM in assay [1] (Homo sapiens, A-375, 120 h); 2.31 µM in assay [3] (setting [5]); 1.41 µM in assay [2] (Homo sapiens, NCI-H358, 120 h).
`C=CC(=O)N1CCN(c2nc(N3CC(N(CC)CC)C3)nc3c(=O)n(-c4c(C)ccc(N)c4C)c(C(F)(F)F)cc23)CC1` [Example 35] gave an IC50 in assay [3] of 12 µM.
As to `C=CC(=O)N1CCN(c2ncnc3c(=O)n(-c4c(N)cccc4F)c(C(F)(F)F)cc23)CC1` [Example 31], the IC50 came out at 33.3 µM in assay [1] (Homo sapiens, A-375, 120 h); 1.25 µM in assay [3] (setting [5]); 1.64 µM in assay [2] (Homo sapiens, NCI-H358, 120 h).
As to `C=CC(=O)N1CCN(c2nc(N3CC(N(CC)CC)C3)nc3c(=O)n(-c4c(F)ccc(Cl)c4N)c(C(F)(F)F)cc23)CC1` [Example 41], the IC50 in assay [1] (Homo sapiens, A-375, 120 h) turned out to be 12.2 µM; in assay [3] (setting [5]) it was 0.16 µM; in assay [2] (Homo sapiens, NCI-H358, 120 h), 0.15 µM.
The matching figures for `C=CC(=O)N1CCN(c2ncnc3c(=O)n(-c4c(N)ccc(Cl)c4F)c(C(F)(F)F)cc23)CC1` [Example 48]: 20.8 µM, 0.13 µM and 0.18 µM.
In the case of `C=CC(=O)N1CC2CN(c3ncnc4c(=O)n(-c5c(O)cccc5F)c(C(F)(F)F)cc34)CC21` (stereo not shown) [Example 18], the IC50 was found to be 2.86 µM in assay [1] (Homo sapiens, A-375, 120 h) and 7.18 µM in assay [2] (Homo sapiens, NCI-H358, 120 h).
For the compound `C=CC(=O)N1CCN(c2ncnc3c(=O)n(-c4c(N)c(Cl)cc(Cl)c4F)c(C(F)(F)F)cc23)[C@@H](C)C1` (atropisomer, axis not shown) [Example 53], the IC50 in assay [1] (Homo sapiens, A-375, 120 h) was found to be 8.91 µM; in assay [2] it was 2.27 µM.
For `C=CC(=O)N1CCN(c2ncnc3c(=O)n(-c4c(N)c(Cl)cc(Cl)c4F)c(C(F)(F)F)cc23)[C@H](C)C1` (atropisomer, axis not shown) [Example 51], the IC50 worked out at 8.82 µM in assay [1] (Homo sapiens, A-375, 120 h) and 2.04 µM in assay [2].
Regarding `C=CC(=O)N1CCN(c2nc(OC3CCN(C)CC3)nc3c(=O)n(-c4c(O)cccc4F)c(C(F)(F)F)cc23)CC1` [Example 12], the IC50 in assay [1] (Homo sapiens, A-375, 120 h) was found to be 9.89 µM; in assay [2] (Homo sapiens, NCI-H358, 120 h), 14.2 µM.
For `C=CC(=O)N1CCN(c2ncnc3c(=O)n(-c4c(O)ccc5ccccc45)c(C(F)(F)F)cc23)CC1` [Trifluoroacetate of example 55], the IC50 in assay [1] (Homo sapiens, A-375, 120 h) was at least 50 µM; in assay [2] (Homo sapiens, NCI-H358, 120 h) it was 4.26 µM.
Usually TGI stands for the reduction of tumour growth relative to the control group. For the compound `C=CC(=O)N1CCN(c2nc(N3CC(N(CC)CC)C3)nc3c(=O)n(-c4c(N)ccc(Cl)c4F)c(C(F)(F)F)cc23)CC1` [Example 42], the “Tumor volume (day 20)” value in assay [4] came to 191 mm^3. Also, in assay [4] (day 20), the TGI is on record as 95.51%. For the same compound, the IC50 amounted to 4.57 µM in assay [1] (Homo sapiens, A-375, 120 h); 0.02 µM in assay [3] (setting [5]); 0.01 µM in assay [2] (Homo sapiens, NCI-H358, 120 h).
As to `C=CC(=O)N1CCN(c2nc(N3CC(N(CC)CC)C3)nc3c(=O)n(-c4c(O)c(Cl)cc(Cl)c4F)c(C(F)(F)F)cc23)CC1` [Example 46], the IC50 is over 50 µM in assay [1] (Homo sapiens, A-375, 120 h); 1.79 µM in assay [3] (setting [5]); 1.95 µM in assay [2] (Homo sapiens, NCI-H358, 120 h).
Turning to `C=CC(=O)N1CCN(c2nc(OC)nc3c(=O)n(-c4c(O)cccc4F)c(C(F)(F)F)cc23)CC1` [Example 11], the IC50 was 42.2 µM in assay [1] (Homo sapiens, A-375, 120 h) and 24 µM in assay [2] (Homo sapiens, NCI-H358, 120 h).
Taken in the same sequence, the figures for `C=CC(=O)N1CCN(c2nc(N3CC(N(CC)CC)C3)nc3c(=O)n(-c4c(N)cccc4F)c(C(F)(F)F)cc23)CC1` [Example 33] were 39.6 µM and 15.8 µM.
As to `C=CC(=O)N1CCN(c2ncnc3c(=O)n(-c4c(F)cccc4OC(=O)N(C)C)c(C(F)(F)F)cc23)CC1` [Example 22], the IC50 is 24.4 µM in assay [1] (Homo sapiens, A-375, 120 h) and 5.12 µM in assay [2] (Homo sapiens, 120 h).
On to `C=CC(=O)N1CCN(c2ncnc3c(=O)n(-c4c(C)ccc5c4cnn5C(C)=O)c(C(F)(F)F)cc23)CC1` [Example 27], for which the IC50 was at least 50 µM in assay [1] (Homo sapiens, A-375, 120 h) and 20.8 µM in assay [2] (Homo sapiens, NCI-H358, 120 h).
For the compound `C=CC(=O)N1CCN(c2ncnc3c(=O)n(-c4c(C)ccc(N)c4C)c(C(F)(F)F)cc23)CC1` [Example 26], the IC50 in assay [1] (Homo sapiens, A-375, 120 h) turned out to be 32.6 µM; in assay [2] (Homo sapiens, NCI-H358, 120 h), 13.3 µM.
With `C=CC(=O)N1CCN(c2ncnc3c(=O)n(-c4c(C)ccc5[nH]ncc45)c(C(F)(F)F)cc23)CC1` [Example 28], the IC50 stood at 36.2 µM in assay [1] (Homo sapiens, A-375, 120 h) and 9.93 µM in assay [2] (Homo sapiens, NCI-H358, 120 h).
